Results on three compounds are retold here after patent publication US9987296B2, “Compositions including anthocyanin or anthocyanidin for the prevention or treatment of Articular cartilage-associated conditions” (priority 2008, dated 2018).

“Also recorded” adds a separate entry of the source.

Common to all, as to assay type: cell-based
Assay [1] has as its system IGF-1. Nature of the assay: IGF-1 production by ELISA, cultured human chondrocytes. The settings on record: for IGF-1 production: cultured chondrocytes treated with compound, presence and absence of IL-1; for IGF-1 production compared to IL-1 alone: human chondrocytes in culture, 5 or 50 ug/mL (FIGS. 5, 6). The procedure: Chondrocytes were prepared by the enzymatic digestion of knee cartilage, as previously described. (Ahmed S et al., J Nutr 2005 135:20962102). Chondrocytes were plated (1×10^6 cells/mL) in 35 mm culture dishes (BD, Mountain View, Calif.) and cultured in DMEM:F12 (Mediatech, Herndon, Va.) supplemented with 10% FCS and 1% Penn:Strep for 72 hrs at 37° C. and 5% CO2 in a tissue culture incubator. Chondrocytes were serum starved overnight and then exposed to either kuromanin or cyanidin chloride (5 or 50 ug/mL), progrado (2 or 10 ug/mL) alone or in combination in fresh serum-free medium for 1 hr prior to the addition of IL-β.
(§1) Human IGF-1 label in chondrocytes culture or cartilage explant media was quantified using a commercially available Human IGF-1 ELISA kit (R& D Systems) per manufacturer's directions.

Assay [2] concerns IGF-1. Nature of the assay: IGF-1 production by ELISA, human cartilage explants. The settings on record: for IGF-1 production compared to IL-1 alone: human cartilage explants, 5 or 50 ug/mL (FIGS. 7, 8). As to the method:
Full thickness cartilage slices (20-25 mg) were dissected from the cartilage using a sterile scalpel blade. Four to five cartilage pieces that were approximately equal in size and weight were transferred to each well of a 24-well, flat bottom plate (Nuns, Denmark) containing DMEM:F12 (1:1) supplemented with antibiotics and 10% FCS and cultured for 24 hours. Subsequently the cartilage explants were cultured overnight in serum free media. The cartilage explants were treated with IL-β alone or with IL-β positive test agents for 72 hours in serum free media. Explants cultured in the absence of IL-β or test agents were used as controls. Additionally, the actions of kuromanin or cyanidin chloride were examined independently of IL-β exposure (5 ng/mL). Where appropriate, explants were exposed to test agents 15 minutes prior to the treatment with IL-β. Total glycosaminoglycan present in the culture supernatant was estimated as described below.
as §1

In assay [3] the test system is bovine cartilage explants. Kind of assay: Matrix synthesis (35S uptake) in bovine cartilage explants. As to the method:
(§2) Bovine cartilage explants (full thickness, 6 mm in diameter) were harvested from fresh femoral condyles. Human osteochondral plugs were harvested using 6 mm osteochondral grafting donor tool (Arthrez 1981-06S, Naples, Fla.) from femoral condyles retrieved from total knee arthroplasty surgery that had been stored in DMEM at 20 degrees C. for less than 24 hours. Full-thickness cartilage explants were cut from the subchondral bone. Each of the 6 mm cartilage disks were divided into 4 equal quadrants. Each quadrant was placed in a different experimental group. This allowed for a paired comparison and controlled for differences in grade of arthritis, thickness of cartilage, cell density, etc. The explants were washed 4-5 times with DMEM with 10% calf serum and were allowed to stabilize for 24 hours in a tissue culture incubator. Explants were then serum starved (0.1% calf serum) for 24 hours prior to commencement of cyanidin chloride treatment.
(§3) 3 mL fresh media with 20 uCi/mL of ^35S-labeled sodium sulfate (NEX0414 Perkin Elmer, Boston, Mass.) (DMEM with 10% CS) was added to each of the explants along with 30 uL of 50 mM stock cyanidin chloride (MW 322.7 g/mole) solution (diluted in DMSO) (Chromadex Inc., Irvine, Calif.) to give the final cyanidin chloride concentration of (200 or 500 uM) in culture. Explants were subjected to cyanidin chloride treatment for 48 hours.
(§4) Radioactive media was aspirated after 48 hours and explants were washed in ice-cold 1×PBS for 10 minutes×3. Each cartilage explant quadrant was blotted dry and was placed in 500 uL of 2 mg/mL Proteinase K (Fisher Scientific, Fair Lawn, N.J.) in TE Buffer solution (10 mM Tris, 1 mM EDTA) and was allowed to rotate at 57 degrees C. for 24 hours in a hybridization oven until completely dissolved. Quantification of ^35S-labeled proteoglycans complexed to alcian blue by rapid filtration in multiwall plates was adopted and modified from Masuda et al Anal. Biochem 1994; 217:167-75. 75 uL of dilution buffer (50 mM Sodium Acetate pH^− 5.8. 0.5% Triton X-100) was added to each well of a 96 well plate (Millipore Multiscreen 96-well filtration system, Millipore, Billerica, Mass.) 25 uL of each digested cartilage explant sample was then loaded followed by 150 uL of 0.2% alcian blue solution (Alcian Blue 8GX electrophoresis grade, Sigma-Aldrich Inc., St. Louis Mo.) and was allowed to rotate for 1 hour at room temperature. The 96-well plate was then placed over a vacuum-manifold to aspirate the contents of the wells through the screen. The 3×200 uL vacuum washes with wash buffer (50 mM sodium acetate pI-I 5.8, 100 mM sodium sulfate, 50 mM MgCl2) were then performed. The 96-well filtration plate was then completely dried at 57 degrees C. for 5 minutes in a hybridization oven and was exposed to storage phosphor screen for 24 hours (Packard Instrument Company Inc., Meriden. Conn.). Phosphorimaging with Cyclone model A431200 (Packard Instrument Company Inc. Meriden, Conn.) was performed to quantify ^35S uptake by proteoglycans. ^35S uptake by proteoglycans in cartilage explants was normalized to DNA by Quant-iT ds DNA Assay Kit (Invitrogen Inc., Carlsbad Calif.).
The effect of cyanidin on bovine cartilage explants was tested. The dose response was also determined. Cartilage explants were treated with 1L-1 (50 ng/mL) for 24 hours. IL-1 reduces matrix synthesis and induces an inflammatory respond similar to osteoarthritis. Explants were then treated with cyanidin chloride at either 200 or 500 uM concentration for 24 hours. Matrix synthesis was monitored by measuring uptake of ^35S.
Bovine explants were initially subjected to IL-1 treatment for 24 hours. Explants were then treated with 500 uM cyanidin chloride in a low glucose (1 g/L) or high glucose concentration (4.5 g/L). […] The higher the glucose concentration increased matrix synthesis by 10%. The cyanidin treatment had small effect under low glucose conditions, but the effect was nearly 20% greater in the high glucose condition.

Assay [4] relates to human osteoarthritic cartilage explants. Nature of the assay: Matrix synthesis (35S uptake) in human osteoarthritic cartilage explants. The procedure: as §2, §3, §4
Reported clinical experiments indicate that 10% dextrose injected in the joint can have a therapeutic effect on osteoarthritis. To test this effect, human osteoarthritic cartilage explants (Grade II) were treated with glucose at physiologic (0.45%) or were treated with supraphysiologic (2.5% and 5%) concentrations with 500 uM cyanidin chloride.

Turning to `Oc1cc(O)c2cc(O)c(-c3ccc(O)c(O)c3)[o+]c2c1` [Cyanidin chloride], the results for the “IGF-1 production (media levels)” value in assay [1] (IL-1 with high dose 50 ug/mL), in assay [1] (IL-1 with low dose 5 ug/mL) and in assay [1] (high dose (50 ug/mL) alone) were “no restoration of media IFG-1 levels”, “no restoration of media IFG-1 levels” and “reduced IGF-1 production from control values”, respectively. Moreover, the IGF-1 production result is on record as “Reduced production of IGF-1” in assay [1]; “no benefit was observed” in assay [2] (explants, IL-1 with high dose 50 ug/mL); “restoration of control IGF-1 production” in assay [2] (explants, IL-1 with low dose 5 ug/mL). In addition, the “IGF-1 production compared to IL-1 alone” value was “greater than IL-1 alone when treated with cyanidin alone at high levels and at low levels in combination with IL-1” in assay [1]; “increased; also recorded: greater than IL-1 alone when treated with cyanidin alone or in combination with IL-1” in assay [2]. Further, the “basal IGF-1 production” value in assay [2] (explants, high dose alone) is reported as “did not express basal IGF-1 production”. The “effect on matrix synthesis, greater in high glucose than in low glucose” value in assay [3] (500 uM, high glucose (4.5 g/L), after IL-1) is around 20%. Also, the “effect on matrix synthesis” value in assay [3] (500 uM, low glucose (1 g/L), after IL-1) is “small effect”. Also, the “matrix synthesis (35S uptake)” value in assay [3] (IL-1 50 ng/mL 24 hours, then 200 or 500 uM for 24 hours, listed as Cyanidin) was “inconsistent effect”; in assay [3] (IL-1 50 ng/mL 24 hours, then 200 or 500 uM for 24 hours, listed as cyanidin), “Initially a dose response was identified but difficult to reproduce”; in assay [3] (IL-1 50 ng/mL 24 hours, then 200 or 500 uM for 24 hours, listed as cyanidin chloride), “we could not reproduce this effect in several subsequent experiments”; in assay [3] (after IL-1, 500 uM combined with high glucose (4.5 g/L)), “significantly induce chondroreparative activity; also recorded: increased matrix synthesis the most”; in assay [4] (human OA Grade II explants, 500 uM at 0.45% glucose), “no effect on matrix synthesis”; in assay [4] (human OA grade II-III explants, 500 uM), “no effect on human OA explants; also recorded: did not increase matrix synthesis in human OA tissue”. Also, the “synergy of cyanidin and glucose on matrix synthesis” value in assay [4] (cyanidin 500 uM combined with glucose) is on record as “did not have significant synergistic effect”.
Consider `OC[C@H]1O[C@@H](Oc2cc3c(O)cc(O)cc3[o+]c2-c2ccc(O)c(O)c2)[C@H](O)[C@@H](O)[C@@H]1O.[Cl-]` [Kuromanin chloride], for which the “IGF-1 production (media levels)” value in assay [1] (IL-1 with high dose 50 ug/mL) was “no effect over IL-1”; in assay [1] (IL-1 with low dose 5 ug/mL), “restoration of IGF-1 production”; in assay [1] (high dose (50 ug/mL) alone) it was “reduced IGF-1 protein levels in the media to a similar level as to that seen with IL-1”. Also, the IGF-1 production result in assay [1] is on record as “Reduced production of IGF-1”. Also, the “IGF-1 production compared to IL-1 alone” value in assay [1] is “greater than IL-1 alone when treated with kuromanin at high levels and at low levels in combination with 1L-1”; in assay [2] it was “increased; also recorded: greater than IL-1 alone when treated with kuromanin alone or in combination with IL-1”.
As for `O=C[C@H](O)[C@@H](O)[C@H](O)[C@H](O)CO` [glucose], the “increase of matrix synthesis” value in assay [3] (higher glucose concentration (4.5 g/L vs 1 g/L), after IL-1) turned out to be 10%. The “matrix synthesis (35S uptake)” value in assay [4] (glucose 0.45% (low, physiologic)) is on record as “stimulate matrix synthesis more than higher concentrations of glucose; also recorded: beneficial effect”; in assay [4] (supraphysiologic glucose (2.5% and 5%)), “reduced matrix synthesis; also recorded: suppressed matrix synthesis”.
